Reference: US7371776B2, “Methods and compositions for treating cancer” (Mars, Incorporated, priority 2004, dated 2008)

Assays:
Type in all cases: cell-based, human
MCF-10A cells = assay: Crystal violet cellular proliferation assay; details: 100 μg/mL
Method: (§1) The MCF-10A cell line (spontaneously immortalized, non-tumorigenic human mammary epithelial cell line with non-mutated p53) was maintained in F-12/DMEM medium supplemented with 5% horse serum (Gibco), 20 ng/mL EGF (Upstate Biotechnology Incorporated, Lake Placid, N.Y.), 10 μg/mL insulin (Biofluids, Rockville, Md.), and 500 ng/mL hydrocortisone. The same media were used for MCF-10A-ErbB2/Ras cells (Ciardiello, F. et al., Mol Carcinog., 6: 43-52. 1992) and MCF-10A-c-Myc cells (Sheen, J-H. et al., Mol. Cell. Biol., 22: 1819-1833, 2002).
(§2) One×10^3 cells per well were seeded in 96 well dishes (Coming Costar, Cambridge, Mass.). Primary cultures of HMECs, A1N4 and 184B5 cells were evaluated at two different cell densities (seeded at 1×10^3 and 2×10^3 per well). After 24 hours of cell attachment, cells in triplicate wells were treated with pentamer at a concentration of 100 μg/mL. The cells on the same plate were treated with corresponding controls: (i) media containing DMSO, and (ii) media with no additions.
(§3) Cells were treated for 1, 2, 3, 6, 8 and 10 days, but in some cases, the samples were collected at days 2, 3, 4, 7 and 10 post-treatment. Each treatment was conducted in triplicate. Samples were collected at each time point as follows: media was removed and 50 μL of crystal violet solution (0.1% of crystal violet in 0.1 M citric acid solution) was added to each well at room temperature and plates were incubated for 15 minutes, followed by washing with deionized water. Plates were dried at room temperature overnight. The following day, plates were destained by adding 100 μL of 0.1 M sodium citrate solution into each well. Plates were incubated for one hour. The optical density (OD) of samples was read at 550 nm on an Ultramark Microplate Imagining System (BioRad, Philadelphia, Pa.). The experiment was repeated twice resulting in an average of nine measurements per sample. Statistical significance was determined using the t test analysis.

MCF-10A-ErbB2/Ras cells = assay: Crystal violet cellular proliferation assay; details: 100 μg/mL
Method: as §1, §2, §3

MCF-10A-c-Myc cells = assay: Crystal violet cellular proliferation assay; details: 100 μg/mL
Method: as §1, §2, §3

normal mortal HMECs = assay: Crystal violet cellular proliferation assay; details: 100 μg/mL
Description: Immortalized human mammary epithelial cells (HMECs), MCF-10A, 184A1N4 and 184B5, normal, finite-life-span HMECs (1001-8, CC-2551) at passage 8, originally derived from mammoplasty breast tissues, were purchased from Clonetics-BioWhittaker, Inc. (Waskersville, Md.). Cell lines generated by introduction of c-MYC, ErbB2 and RAS oncogene into MCF-10A cells (MCF-10A-ErbB2/Ras cells and MCF-10A-c-Myc) were also used.
Normal mortal HMECs were maintained according to the supplier's instructions in mammary epithelial cell growth medium (CC-3152) (Clonetics) supplemented with 52 μg of bovine pituitary extract per ml, 10 ng/mL of human EGF, 5 μg/mL of insulin, and 0.5 μg/mL of hydrocortisone and were grown in 37° C. incubators with low (0.1 to 0.2%) CO2 settings.
One×10^3 cells per well were seeded in 96 well dishes (Coming Costar, Cambridge, Mass.). Primary cultures of HMECs, A1N4 and 184B5 cells were evaluated at two different cell densities (seeded at 1×10^3 and 2×10^3 per well). […]
(§4) Cells were treated for 1, 2, 3, 6, 8 and 10 days, but in some cases, the samples were collected at days 2, 3, 4, 7 and 10 post-treatment. […] The optical density (OD) of samples was read at 550 nm on an Ultramark Microplate Imagining System (BioRad, Philadelphia, Pa.). […] Statistical significance was determined using the t test analysis.

AIN4 cells = assay: Crystal violet cellular proliferation assay; details: 100 μg/mL
Method: The 184A1N4 cell line (hereinafter “A1N4”) is a non-tumorigenic cell line derived from primary cultures of HMECs and immortalized with benzo(a)pyrene (provided by Dr. M. R. Stampfer, University of California, Berkley, Calif.) (Stampfer, M. R. et al., Proc. Natl. Acad. Sci. USA, 82: 2394-2398, 1985). These cells were maintained in IMEM medium with 0.5% FBS, 0.5 μg/mL of hydrocortisone (Biofluids), 5 μg/mL insulin and 10 ng/mL of EGF.
as §2
as §4, with “post-treatment. Each treatment was conducted in triplicate.” for “post-treatment.”

PARP = PARP cleavage in MCF-7 cells; details: 48 hours treatment
Description: Rabbit polyclonal poly (ADP-ribose) polymerase (PARP) (H-250) was obtained from Santa Cruz Biotechnology Inc., (Santa Cruz, Calif.). α-Tubulin antibody was obtained from Neomarkers, Fremont, Calif. All antibodies used for proteomics analysis were obtained from Cell Signaling (Beverly, Mass.), Upstate Biotechnology (Lake Placid, N.Y.), Neomarkers (Fremont, Calif.) and Santa Cruz (Santa Cruz, Calif.) (Table 2). Referring to Table 2, Abs designated as “mouse” were monoclonal Abs, and Abs designated as “rabbit” were polyclonal Abs. The ECL detection reagent was obtained from Amersham (Arlington Heights, Ill.).
To determine whether depolarization of the mitochondrial membrane, induced by pentamer leads to apoptotic cellular death in human breast cancer cells lines, MDA MB-231 and MCF-7 cells were examined for PARP cleavage products. Since PARP is one of the downstream substrates of the caspase cascade, it is an excellent marker of apoptosis [Soldani, C. et al., Apoptosis, 7: 321-328, 2002].

p53 = assay: High resolution profiling (P-FILM) of p53 in MDA MB-468 cells; details: 100 μg/mL
Method: (§5) Both p53 and pRb contain multiple phosphorylation sites, and evaluating each site separately provides a more accurate indication of each protein's potential function. Therefore, a high resolution functional profiling of the proteins was performed using P-FILM technology (20/20 Gene Systems, Inc.).
(§6) The same protein samples as those used for PDVF membrane blotting were used. Ten μg of each protein sample of MDA MB-231 cells, and in some cases MDA MB-468 and MCF-7 cells, treated with 100 μg /mL of pentamer or DMSO-treated controls, were separated by PAGE on 4-20% gradient gels (BioRad). Proteins were transferred on a stack of ten membranes, according to manufacturer's instructions (20/20 Gene Systems, Inc.). The membranes were probed with antibodies recognizing total and phosphorylated p53 (p53Ser6, Ser9, Ser15, Ser20, Ser37, Ser46 and Ser392) at 1:1000 dilution as recommended by the manufacturer (Cell Signaling). The secondary antibody used in all cases was anti-rabbit polyclonal 1:2000 (Amersham). Signals were visualized on BIOMAX MR film (Kodak). The profiling of pRb was done using anti-phospho pRb (Ser780, Ser 795 and Ser 807/811) and anti-pRb polyclonal antibody (Cell Signaling) at a 1:1000 dilution. The secondary antibody used in all cases was anti-rabbit at 1:2000 dilution (Amersham). Image analysis was performed with Kodak 1D image analysis software. Background corrected intensity values were normalized for loading by using GAPDH intensities. Numerical analysis was performed in Excel.

pRb = assay: High resolution profiling (P-FILM) of pRb in MDA MB-231 cells; details: 100 μg/mL, 48 and 72 hours
Method: as §5
as §6, with “Background corrected intensity values were normalized for loading by using GAPDH intensities. Numerical analysis was performed in Excel.” left out

Structure (SMILES): Oc1cc(O)c2c(c1)O[C@H](c1ccc(O)c(O)c1)[C@H](O)[C@H]2c1c(O)cc(O)c2c1O[C@H](c1ccc(O)c(O)c1)[C@H](O)[C@H]2c1c(O)cc(O)c2c1O[C@H](c1ccc(O)c(O)c1)[C@H](O)[C@H]2c1c(O)cc(O)c2c1O[C@H](c1ccc(O)c(O)c1)[C@H](O)[C@H]2c1c(O)cc(O)c2c1O[C@H](c1ccc(O)c(O)c1)[C@H](O)C2 [pentamer, pentameric procyanidin]
- pentamer-induced growth inhibition (MCF-10A cells): equally resistant
- pentamer-induced growth inhibition (MCF-10A-ErbB2/Ras cells): equally resistant
- pentamer-induced growth inhibition (MCF-10A-c-Myc cells): equally resistant
- growth inhibited, in comparison to DMSO-treated controls (normal mortal HMECs): 1.4 fold
- growth inhibited, in comparison to DMSO-treated controls (AIN4 cells): 7.3 fold
- cleaved PARP fragment (PARP): no cleaved PARP fragment was detected
- full-length PARP (116 kDa) (PARP): decrease
- percentage of p53 phosphorylated at Ser392 decreased, compared to untreated controls (p53; MD MB-468): 33%
- expression of endogenous p53 (p53; MDA MB-468): not significantly affected
- phosphorylation of p53 Ser15 and Ser46 (p53; MDA MB-468): not significantly affected
- phosphorylation of pRb on all tested residues (Ser780, Ser795 and Ser807/811) (pRb): decrease
- protein expression of endogenous pRb (pRb): decrease
